The values that follow come from patent US12544384B2, “Antibiotic conjugates” (priority 2018, dated 2026).

Structures are written as SMILES. ≈ marks a conversion by molar mass, not a printed value.

The MIC is the least concentration at which growth counts as inhibited.

In one test the test system is A. baumannii ATCC 17978. The experiment in a line: MIC, antimicrobial susceptibility assay in iron depleted media. Type of test: cell-based, Acinetobacter baumannii. The settings on record: for Antibacterial activity (in words): A. baumannii ATCC 17978, low amount of ADC-1; for MIC: Acinetobacter baumannii, ATCC17978, A. baumannii ATCC 17978, small amount of chromosomal ADC-1, iron depleted media, average of three measurements. The text has this:
(§1) For this purpose, A. baumannii ATCC 17978, which produces a small amount of the chromosomally-encoded enzyme, and the same strain that produces a large amount of ADC-1 from the pNT255 vector were used (Table 1).

In test [1] the test system is A. baumannii ATCC 17978 pNT255. The experiment in a line: MIC, antimicrobial susceptibility assay, strain with pNT255 vector. Type of test: cell-based. As to conditions: Acinetobacter baumannii, ATCC17978, read-out: Activity (MIC).
Description: as §1

Test [2] has as its system A. baumannii ATCC 17978 pNT225: ADC-1. The experiment in a line: MIC, antimicrobial susceptibility assay, strain with plasmid-encoded ADC-1 β-lactamase. Type of test: cell-based, Acinetobacter baumannii. As to conditions: for MIC: Acinetobacter baumannii, ATCC17978, read-out: Activity (MIC).
Description: as §1

The test system of a further test is A. baumannii ATCC 17961. Kind of test: MIC against clinical isolate. Type of test: cell-based, Acinetobacter baumannii. The settings on record: for MIC: Acinetobacter baumannii, ATCC17961, read-out: Activity (MIC); for Antibacterial activity (in words): clinical isolate ATCC 17961. The procedure: (§2) Subsequently, the activities of the disclosed compounds were evaluated against four clinical isolates of A. baumannii (ATCC 17961, ATCC BAA1793, ATCC BAA1797 and ATTC BAA1800). All four A. baumannii isolates were resistant to compounds 3, 22, 23, and 27. Strain ATCC 17961 was susceptible to both 26 and 1, indicating lack of or low β-lactamase content and/or activity.

Test [3] relates to A. baumannii ATCC BAA 1793. Kind of test: MIC against clinical isolate. As to conditions: for MIC: Acinetobacter baumannii, BAA1793, read-out: Activity (MIC); for Antibacterial activity (in words): clinical isolate ATCC BAA1793. Type of test: cell-based, Acinetobacter baumannii. How it is done: as §2
Test [4] relates to A. baumannii ATCC BAA 1797. Kind of test: MIC against clinical isolate. Type of test: cell-based, Acinetobacter baumannii. As to conditions: for MIC: Acinetobacter baumannii, BAA1797, read-out: Activity (MIC); for Antibacterial activity (in words): clinical isolate ATCC BAA1797. The procedure:
as §2

The subject of test [5] is A. baumannii ATCC BAA 1800. The experiment in a line: MIC against clinical isolate. Type of test: cell-based, Acinetobacter baumannii. As to conditions: for MIC: Acinetobacter baumannii, BAA1800, read-out: Activity (MIC); for Antibacterial activity (in words): clinical isolate ATCC BAA1800. How it is done: as §2
The subject of the next test is ADC-1 β-lactamase. Kind of test: Enzymatic hydrolysis by ADC-1, LC/MS. As to conditions: 20 μM compound, 20 μM ADC-1, 50 mM sodium phosphate pH 7.4, room temperature, 40 min. Type of test: biochemical, A. baumannii. The procedure: With the final siderophore-cephalosporin-oxazolidinone conjugate (1) along with the separate cephalosporin and oxazolidinone conjugates (26 and 27) as well as the corresponding cephalosporin (23), oxazolidinone (3) and eperezolid (17) available, enzymatic and anti-bacterial assays were performed to test the susceptibility of conjugate (1) to the hydrolytic activity of β-lactamases from Gram-negative bacteria. Thus, assays were conducted to evaluate whether the oxazolidinone could be efficiently released from the final siderophore-cephalosporin-oxazolidinone conjugate (1) as a result of cephalosporin hydrolysis by a β-lactamase. For this purpose, one of the ADC-type β-lactamases (ADC-1) was chosen as ADC enzymes are intrinsic to A. baumannii, an important clinical pathogen, and are capable of hydrolyzing cephalosporin antibiotics.
The ADC-1 β-lactamase was expressed and purified as previously described (Bhattacharya et al., Acta Crystallogr., Sect. D: Biol. Crystallogr., 2014, 70, 760-771). Conjugate 1 (10 mM in DMSO) was diluted 5-fold in DMSO and then another 10-fold in 50 mM sodium phosphate, pH 7.4 to give a 200 μM solution with 10% DMSO. Subsequently, a 60 μL reaction was prepared consisting of 20 μM of 1 (6 μL of a 200 μM solution) and 20 μM ADC-1 β-lactamse (8.1 μL of 148 μM enzyme) in 50 mM sodium phosphate, pH 7.4 (the final concentration of DMSO was 1%). […]

The subject of another test is E. coli DC0. The experiment in a line: MIC against other Gram-negative bacteria. As to conditions: for Antibacterial activity (in words): Escherichia coli DC0; for MIC: Escherichia coli, DC0, read-out: Activity (MIC).
Another test has as its system P. aeruginosa KW799/wt. Kind of test: MIC against other Gram-negative bacteria. As to conditions: for Antibacterial activity (in words): Pseudomonas aeruginosa KW799; for MIC: Pseudomonas aeruginosa, KW799/WT, read-out: Activity (MIC).
In test [6] the test system is Mycobacterium tuberculosis (Mtb). As to conditions: background statement; cited from earlier work.

Description for E. coli DC0: (§3) This plasmid was then introduced by electroporation into A. baumannii ATCC 17978 for MIC measurements. MIC analyses were performed using iron depleted media as described previously (Ghosh, J. Med. Chem., 2017, 60, 4577-4583).
Description for P. aeruginosa KW799/wt: as §3

On to `CC(=O)NC[C@H]1CN(c2ccc(N3CCN(C(=O)CNC(=O)OCC4=C(C(=O)O)N5C(=O)[C@@H](NC(=O)C(NC(=O)CN(CCCCNC(=O)c6cccc(O)c6O)C(=O)c6cccc(O)c6O)c6ccccc6)[C@H]5SC4)CC3)c(F)c2)C(=O)O1` (stereo partly drawn) [Compound 1, (6R,7R)-3-((((2-(4-(4-((S)-5-(Acetamidomethyl)-2-oxooxazolidin-3-yl)-2-fluorophenyl)piperazin-1-yl)-2-oxoethyl)carbamoyl)oxy)methyl)-7-(2-(2-(N-(4-(2,3-dihydroxybenzamido)butyl)-2,3-dihydroxybenzamido)acetamido)-2-phenylacetamido)-8-oxo-5-thia-1-azabicyclo[4.2.0]oct-2-ene-2-carboxylic acid], for which the “Antibacterial activity (in words)” value is “similarly potent activity” with A. baumannii ATCC 17978; “susceptible” in the test with A. baumannii ATCC 17961; “very active” in test [3]; “very active” in [4]; “very active” in test [5]; “remarkably active” in the test with E. coli DC0. Moreover, the “Antibacterial activity (in words)” value with P. aeruginosa KW799/wt is “remarkably active”. Further, the MIC is 0.4 µM (≈ 0.473 µg/mL) against A. baumannii ATCC 17978; 0.4 µM (≈ 0.473 µg/mL) in test [1]; 6 µM (≈ 7.1 µg/mL) in [2]; 0.8 µM (≈ 0.947 µg/mL) with A. baumannii ATCC 17961; 0.8 to 1.6 µM (≈ 0.947 to 1.89 µg/mL) in test [3]; 6.25 µM (≈ 7.39 µg/mL) in test [4]. The MIC in test [5] is 0.8 µM (≈ 0.947 µg/mL); with E. coli DC0 it was less than 0.025 µM; in the test on P. aeruginosa KW799/wt, 0.2 to 0.4 µM (≈ 0.237 to 0.473 µg/mL). Moreover, the “Decrease of MIC compared to the siderophore-cephalosporin” value in test [2] (A. baumannii with plasmid-encoded β-lactamase, versus 26) was “at least 8 fold”. In addition, the “Hydrolysis by purified ADC-1 and release of oxazolidinone” value with ADC-1 β-lactamase is “rapid and complete hydrolysis and release of the oxazolidinone”.

`CC(=O)NC[C@H]1CN(c2ccc(N3CCN(C(=O)CNC(=O)CN(CCCCNC(=O)c4cccc(O)c4O)C(=O)c4cccc(O)c4O)CC3)c(F)c2)C(=O)O1` [Compound 27, (S)—N-(2-((2-(4-(4-(5-(Acetamidomethyl)-2-oxooxazolidin-3-yl)-2-fluorophenyl)piperazin-1-yl)-2-oxoethyl)amino)-2-oxoethyl)-N-(4-(2,3-dihydroxybenzamido)butyl)-2,3-dihydroxybenzamide]: the “Antibacterial activity (in words)” value is “not active” with A. baumannii ATCC 17978; “resistant” in the test with A. baumannii ATCC 17961; “resistant” in [3]; “resistant” in test [4]; “resistant” in [5]; “not active” in the test with E. coli DC0. Moreover, the “Antibacterial activity (in words)” value in the test with P. aeruginosa KW799/wt is reported as “not active”. Further, the MIC (with A. baumannii ATCC 17978; in [1]; in [2]; with A. baumannii ATCC 17961; in [3]; in [4]) was greater than 50 µM each time. Besides, the MIC (in [5]; with E. coli DC0; with P. aeruginosa KW799/wt) was greater than 50 µM each time.

As to `C[C@@H]1CC[C@H]2[C@@H](C)C(=O)O[C@@H]3O[C@@]4(C)CC[C@@H]1[C@]32OO4` [artemisinin], in test [6], the “Anti-tuberculosis activity (in words)” value was “no anti-tuberculosis activity”.
